According to patent US10131652B2, “Pyrimidinyloxy benzene derivatives as herbicides” (E. I. DU PONT DE NEMOURS AND COMPANY, priority 2014, dated 2018):

Assays:
Format in all cases: in vivo
[1] = system: velvetleaf (Abutilon theophrasti); assay: Test B pre-/postemergence plant response
In short: (§1)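 Visual injury scores on a 0–100 scale (100 = complete control) relative to untreated plants, taken about 10 days post-treatment in greenhouse. Treatments were a directed preemergence soil spray and a postemergence spray at one- to two-leaf stage, using surfactant-containing solvent formulation.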

corn (Zea mays) = assay: Test B pre-/postemergence plant response
In short: as §1

[2] = system: barnyardgrass (Echinochloa crus-galli); assay: Test B pre-/postemergence plant response
In short: as §1

[3] = system: wheat (Triticum aestivum); assay: Test B pre-/postemergence plant response
In short: as §1

[4] = system: large (Lg) crabgrass (Digitaria sanguinalis); assay: Test B pre-/postemergence plant response
In short: as §1

[5] = system: giant foxtail (Setaria faberii); assay: Test B pre-/postemergence plant response
In short: as §1

[6] = system: pigweed (Amaranthus retroflexus); assay: Test B pre-/postemergence plant response
In short: as §1

[7] = system: morningglory (Ipomoea spp.); assay: Test B pre-/postemergence plant response
In short: as §1

[8] = system: small-flower umbrella sedge (Cyperus difformis); assay: Test C flooded paddy test plant response; conditions: Flood, 250 g ai/ha; scale of 0 to 100 where 0 is no effect and 100 is complete control; 13 to 15 days
In short: (§2)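 Water-applied treatment: compounds go directly into floodwater standing 3 cm over the soil of pots holding 2-leaf-stage plants. Depth is kept constant; plants stay in a greenhouse 13 to 15 days before visual comparison with controls on a 0–100 scale.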

[9] = system: ducksalad (Heteranthera limosa); assay: Test C flooded paddy test plant response; conditions: Flood, 250 g ai/ha; scale of 0 to 100 where 0 is no effect and 100 is complete control; 13 to 15 days
In short: as §2

[10] = system: barnyardgrass (Echinochloa crus-galli); assay: Test C flooded paddy test plant response; conditions: Flood, 250 g ai/ha; scale of 0 to 100 where 0 is no effect and 100 is complete control; 13 to 15 days
In short: as §2

rice (Oryza sativa) = assay: Test C flooded paddy test plant response; conditions: Flood, 250 g ai/ha; scale of 0 to 100 where 0 is no effect and 100 is complete control; 13 to 15 days
In short: as §2

[11] = 125 g ai/ha, postemergence, 0 to 100 scale, 0 no effect, 100 complete control
[12] = 500 g ai/ha, postemergence, 0 to 100 scale, 0 no effect, 100 complete control
[13] = Preemergence, 125 g ai/ha, 0 to 100 scale (0 no effect, 100 complete control)
[14] = Preemergence, 500 g ai/ha, 0 to 100 scale where 0 is no effect and 100 is complete control
[15] = Postemergence, 500 g ai/ha, 0 to 100 scale (0 no effect, 100 complete control)
[16] = Preemergence, 125 g ai/ha, 0 to 100 scale where 0 is no effect and 100 is complete control

Clc1ccc(-c2ccc(Br)cc2Oc2ncc(Cl)cn2)nc1 [Compound 203]
0: Plant response rating, Velvetleaf [1, 11] | Plant response rating, Velvetleaf [1, 12] | Velvetleaf plant response rating [1, 13] | Plant response rating, Velvetleaf [1, 14] | Plant response rating, Corn (corn (Zea mays); [11]) | Plant response rating, Corn (corn (Zea mays); [12]) | Corn plant response rating (corn (Zea mays); [13]) | Plant response rating, Corn (corn (Zea mays); [14]) | Plant response rating, Barnyardgrass [2, 11] | Plant response rating, Barnyardgrass [2, 12] | Barnyardgrass plant response rating [2, 13] | Plant response rating, Barnyardgrass [2, 14] | Plant response rating, Wheat [3, 11] | Plant response rating, Wheat [3, 12] | Wheat plant response rating [3, 13] | Plant response rating, Wheat [3, 14] | Plant response rating, Crabgrass, Large [4, 11] | Plant response rating, Crabgrass, Large [4, 12] | Crabgrass, Large plant response rating [4, 13] | Plant response rating, Crabgrass, Large [4, 14] | Plant response rating, Foxtail, Giant [5, 11] | Plant response rating, Foxtail, Giant [5, 12] | Foxtail, Giant plant response rating [5, 13] | Plant response rating, Foxtail, Giant [5, 14] | Plant response rating, Pigweed [6, 11] | Plant response rating, Pigweed [6, 12] | Pigweed plant response rating [6, 13] | Plant response rating, Pigweed [6, 14] | Plant response rating, Morningglory [7, 11] | Plant response rating, Morningglory [7, 12] | Morningglory plant response rating [7, 13] | Plant response rating, Morningglory [7, 14] | Sedge, Umbrella plant response rating [8] | Ducksalad plant response rating [9] | Barnyardgrass plant response rating [10] | Rice plant response rating (rice (Oryza sativa))

O=[N+]([O-])c1cc(Cl)cnc1-c1ccccc1Oc1ncc(Cl)cn1 [Compound 201]
0: Plant response rating, Velvetleaf [1, 11] | Plant response rating, Velvetleaf [1, 12] | Velvetleaf plant response rating [1, 13] | Plant response rating, Velvetleaf [1, 14] | Plant response rating, Corn (corn (Zea mays); [11]) | Plant response rating, Corn (corn (Zea mays); [12]) | Corn plant response rating (corn (Zea mays); [13]) | Plant response rating, Corn (corn (Zea mays); [14]) | Plant response rating, Barnyardgrass [2, 11] | Plant response rating, Barnyardgrass [2, 12] | Barnyardgrass plant response rating [2, 13] | Plant response rating, Barnyardgrass [2, 14] | Plant response rating, Wheat [3, 11] | Plant response rating, Wheat [3, 12] | Wheat plant response rating [3, 13] | Plant response rating, Wheat [3, 14] | Plant response rating, Crabgrass, Large [4, 11] | Plant response rating, Crabgrass, Large [4, 12] | Crabgrass, Large plant response rating [4, 13] | Plant response rating, Crabgrass, Large [4, 14] | Plant response rating, Foxtail, Giant [5, 11] | Plant response rating, Foxtail, Giant [5, 12] | Foxtail, Giant plant response rating [5, 13] | Plant response rating, Foxtail, Giant [5, 14] | Plant response rating, Pigweed [6, 11] | Plant response rating, Pigweed [6, 12] | Pigweed plant response rating [6, 13] | Plant response rating, Pigweed [6, 14] | Plant response rating, Morningglory [7, 11] | Plant response rating, Morningglory [7, 12] | Morningglory plant response rating [7, 13] | Plant response rating, Morningglory [7, 14] | Sedge, Umbrella plant response rating [8] | Ducksalad plant response rating [9] | Barnyardgrass plant response rating [10] | Rice plant response rating (rice (Oryza sativa))

FC(F)(F)c1ccnc(-c2ccccc2Oc2ncc(Br)cn2)c1 [Compound 26]
90: Plant response rating, Foxtail, Giant [5, 14]
30: Plant response rating, Barnyardgrass [2, 14] | Plant response rating, Crabgrass, Large [4, 15] | Plant response rating, Foxtail, Giant [5, 15] | Plant response rating, Pigweed [6, 11]
10: Plant response rating, Velvetleaf [1, 11] | Plant response rating, Velvetleaf [1, 16] | Plant response rating, Corn (corn (Zea mays); [11]) | Plant response rating, Wheat [3, 15] | Plant response rating, Crabgrass, Large [4, 11] | Plant response rating, Crabgrass, Large [4, 16] | Plant response rating, Morningglory [7, 11]
0: Plant response rating, Corn (corn (Zea mays); [16]) | Plant response rating, Corn (corn (Zea mays); [14]) | Plant response rating, Barnyardgrass [2, 11] | Plant response rating, Barnyardgrass [2, 16] | Plant response rating, Wheat [3, 11] | Plant response rating, Wheat [3, 16] | Plant response rating, Wheat [3, 14] | Plant response rating, Foxtail, Giant [5, 11] | Plant response rating, Foxtail, Giant [5, 16] | Plant response rating, Pigweed [6, 16] | Plant response rating, Morningglory [7, 16] | Plant response rating, Morningglory [7, 14] | Sedge, Umbrella plant response rating [8] | Ducksalad plant response rating [9] | Barnyardgrass plant response rating [10] | Rice plant response rating (rice (Oryza sativa))
80: Plant response rating, Velvetleaf [1, 15] | Plant response rating, Velvetleaf [1, 14] | Plant response rating, Pigweed [6, 15]
100: Plant response rating, Crabgrass, Large [4, 14] | Plant response rating, Pigweed [6, 14]
50: Plant response rating, Morningglory [7, 15]
20: Plant response rating, Corn (corn (Zea mays); [15]) | Plant response rating, Barnyardgrass [2, 15]

Clc1cnc(Oc2ccccc2-c2cc(Cl)cc(Cl)c2)nc1 [Compound 41]
10: Plant response rating, Velvetleaf [1, 11] | Plant response rating, Corn (corn (Zea mays); [15]) | Plant response rating, Crabgrass, Large [4, 11] | Plant response rating, Crabgrass, Large [4, 14] | Plant response rating, Foxtail, Giant [5, 11] | Plant response rating, Morningglory [7, 15]
20: Plant response rating, Barnyardgrass [2, 15] | Plant response rating, Crabgrass, Large [4, 15] | Plant response rating, Foxtail, Giant [5, 15] | Plant response rating, Foxtail, Giant [5, 14]
70: Plant response rating, Pigweed [6, 15]
0: Plant response rating, Velvetleaf [1, 16] | Plant response rating, Velvetleaf [1, 14] | Plant response rating, Corn (corn (Zea mays); [11]) | Plant response rating, Corn (corn (Zea mays); [16]) | Plant response rating, Corn (corn (Zea mays); [14]) | Plant response rating, Barnyardgrass [2, 11] | Plant response rating, Barnyardgrass [2, 16] | Plant response rating, Barnyardgrass [2, 14] | Plant response rating, Wheat [3, 11] | Plant response rating, Wheat [3, 15] | Plant response rating, Wheat [3, 16] | Plant response rating, Wheat [3, 14] | Plant response rating, Crabgrass, Large [4, 16] | Plant response rating, Foxtail, Giant [5, 16] | Plant response rating, Pigweed [6, 16] | Plant response rating, Pigweed [6, 14] | Plant response rating, Morningglory [7, 11] | Plant response rating, Morningglory [7, 16] | Plant response rating, Morningglory [7, 14] | Sedge, Umbrella plant response rating [8] | Ducksalad plant response rating [9] | Barnyardgrass plant response rating [10] | Rice plant response rating (rice (Oryza sativa))
30: Plant response rating, Velvetleaf [1, 15]
40: Plant response rating, Pigweed [6, 11]
